Test results reported in article PMC5735191, “Computational and biological profile of boronic acids for the detection of bacterial serine- and metallo-β-lactamases” (Scientific Reports, 2017).
Where “and” joins values, the source holds several entries; their conditions need not be identical. Equal values may be shown once.

Legend:
[1] = tested on: CC(=O)OCC1=C(C(=O)O)N2C(=O)[C@@H](NC(=O)Cc3cccs3)[C@H]2SC1; test: purified protein, by the assay type; conditions: other: β-lactam substrate of AmpC, enzyme 0.019 µM; 37.0 °C
[2] = target: NDM-1 (Klebsiella pneumoniae, UniProt C7C422); test: Enzyme inhibition assay (spectrophotometric, cephalothin reporter substrate); format: biochemical; parameters: His-tag; made in house; host or cells: E. coli BL21(DE3), pET-15-NDM-1; conditions: mean of two replicates, five inhibitor concentrations, Dixon plot; pH 7.5, 25 °C
Chain of NDM-1 (C7C422 29-270 limits assumed): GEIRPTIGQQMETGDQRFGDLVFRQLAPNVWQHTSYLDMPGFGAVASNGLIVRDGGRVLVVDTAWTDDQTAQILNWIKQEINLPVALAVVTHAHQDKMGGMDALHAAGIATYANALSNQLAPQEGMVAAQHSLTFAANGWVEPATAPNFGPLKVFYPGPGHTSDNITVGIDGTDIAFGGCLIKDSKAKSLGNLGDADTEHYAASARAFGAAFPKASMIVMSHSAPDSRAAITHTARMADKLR
Description: (§1) To obtain a well-characterized inhibition profile for each selected boronic acids against each BLs in the panel, the compounds were tested for inhibitory activity. The protein panel included clinically- and epidemiologically-relevant β-lactamases, representatives of each structural class (A to D), as mentioned above. Each BL was overexpressed in E. coli, purified by chromatography and characterized as already reported. (SI, Table S1)[40]–[45].
(§2) Reactions were initiated with addition of BL enzyme (the concentration values for each BL enzyme into the SI, Table S1 have been reported).

[3] = target: T1, CTX-M-15 (Escherichia coli, UniProt Q9EXV5); test: as above; format: biochemical; conditions: IC50 CTX-M-15, mean of two replicates, five inhibitor concentrations, Dixon plot; pH 7.5, 25 °C
T1 construct: made in house; host or cells: E. coli BL21(DE3), pET-9a derivative (pET-CTX-M-15)
T1 sequence (Q9EXV5 entry or part of it): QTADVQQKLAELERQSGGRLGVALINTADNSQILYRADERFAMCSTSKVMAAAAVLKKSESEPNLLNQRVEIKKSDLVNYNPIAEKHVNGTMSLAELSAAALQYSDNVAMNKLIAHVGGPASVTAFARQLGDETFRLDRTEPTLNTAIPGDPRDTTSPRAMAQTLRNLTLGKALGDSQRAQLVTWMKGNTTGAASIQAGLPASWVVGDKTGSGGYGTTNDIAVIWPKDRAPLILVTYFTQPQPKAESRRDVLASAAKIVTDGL
Description: as §1, §2
(§3) From the resulting inhibition percentages at each different inhibitor concentration and, assuming a competitive inhibition for the boronic compounds panel, it was possible to calculate the IC50 values from the Dixon plot 1/V vs [I], using the equation IC50 = […][61], where v0 is the rate of hydrolysis of the reporter substrate (v0 being the rate measured in the absence of inhibitor), q the y axis intercept and m the slope of the resulting linear regression.

[4] = target: T2, OXA-24 (Acinetobacter baumannii, UniProt Q8RLA6); test: as above; format: biochemical
T2 construct: GST (N, cleaved yes); made in house; host or cells: E. coli DH5α, pGEX-2T-OXA-24
T2 sequence (Q8RLA6 22-275 limits assumed): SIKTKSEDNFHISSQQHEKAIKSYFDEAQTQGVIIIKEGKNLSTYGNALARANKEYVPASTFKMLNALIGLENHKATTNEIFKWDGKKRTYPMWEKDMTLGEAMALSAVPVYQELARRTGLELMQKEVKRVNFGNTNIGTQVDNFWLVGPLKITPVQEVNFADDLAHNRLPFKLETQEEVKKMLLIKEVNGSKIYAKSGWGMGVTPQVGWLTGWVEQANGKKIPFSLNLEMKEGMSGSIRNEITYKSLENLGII
Description: as §1, §2, §3

[5] = target: T3, AmpC β-lactamase (Pseudomonas aeruginosa, UniProt P24735); test: as above; format: biochemical, P. aeruginosa; conditions: mean of two replicates, five inhibitor concentrations, Dixon plot, 100 μM cephalothin, pH 7.5, 25 °C
T3 construct: made in house; host or cells: E. coli BL21(DE3), plasmid pET-9aAmpC
T3 sequence (P24735 27-397): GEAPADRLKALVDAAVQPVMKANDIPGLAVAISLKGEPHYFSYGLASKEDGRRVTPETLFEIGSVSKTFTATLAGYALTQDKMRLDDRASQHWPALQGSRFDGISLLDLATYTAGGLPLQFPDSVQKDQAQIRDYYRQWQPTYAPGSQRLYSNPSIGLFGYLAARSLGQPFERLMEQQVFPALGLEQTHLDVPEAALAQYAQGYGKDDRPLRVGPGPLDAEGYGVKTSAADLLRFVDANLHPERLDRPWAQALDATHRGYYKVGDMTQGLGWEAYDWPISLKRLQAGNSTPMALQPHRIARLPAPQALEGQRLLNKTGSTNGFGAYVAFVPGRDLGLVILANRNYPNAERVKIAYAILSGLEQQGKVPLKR
Description: as §1, §2, §3

[6] = tested on: P. aeruginosa 12, overproduction chromosomal AmpC; test: Susceptibility testing (MIC), synergy with ceftazidime; format: cell-based; conditions: antibiotic:inhibitor 1:1 (w/w)
Description: (§4) The minimum inhibitory concentrations (MICs), for CAZ and CTX alone and in combination with boronic acids against resistant strains were determined (Table 2a,b).
(§5) Susceptibility testing was performed in Mueller Hinton broth and interpreted following the guidelines of the National Committee for Clinical Laboratory Standards[70]. To test the inhibitory activity, the compounds were dissolved in DMSO, 50% in water, and further dilutions were performed using growth medium. In all cases tests were performed at a final DMSO concentration below 5%, avoiding unwanted DMSO inhibition effect on strains growth (blank test control with DMSO were performed). The MICs of cefotaxime and ceftazidime alone and in association were determined against several relevant Gram-negative clinical isolates, selected from the pathogen collection of the Spanish Network for Research in Infectious Pathology (REIPI; Spain). The selection was based on strains capability of producing β-lactamases of interest for the present study. The antibiotic:inhibitor ratio was 1:1 (w/w).

[7] = tested on: P. aeruginosa 120, overproduction chromosomal AmpC; test: as above; format: cell-based; conditions: antibiotic:inhibitor 1:1 (w/w)
Description: as §4, §5

[8] = tested on: P. aeruginosa 199, overproduction chromosomal AmpC; test: as above; format: cell-based; conditions: antibiotic:inhibitor 1:1 (w/w)
Description: as §4, §5

[9] = tested on: E. cloacae clinical isolate, overproduction chromosomal AmpC; test: as above; format: cell-based; conditions: for MIC of ceftazidime (CAZ) in combination with compound: overproduction chromosomal AmpC, antibiotic:inhibitor 1:1 (w/w)
Description: as §4, §5

[10] = tested on: E. coli clinical isolate, plasmidic AmpC - DHA1; test: as above; format: cell-based; conditions: for MIC of ceftazidime (CAZ) in combination with compound: E. coli, plasmidic AmpC - DHA1, antibiotic:inhibitor 1:1 (w/w)
Description: as §4, §5

[11] = tested on: P. aeruginosa 148, overproduction chromosomal AmpC; test: as above; format: cell-based; conditions: antibiotic:inhibitor 1:1 (w/w)
Description: as §4, §5

[12] = tested on: E. coli clinical isolate, overproduction chromosomal AmpC; test: as above; format: cell-based; conditions: antibiotic:inhibitor 1:1 (w/w)
Description: as §4, §5

[13] = tested on: P. aeruginosa 49, overproduction chromosomal AmpC; test: as above; format: cell-based; conditions: antibiotic:inhibitor 1:1 (w/w)
Description: as §4, §5

[14] = target: VIM-2 (Escherichia coli, UniProt Q5U7L7); test: Enzyme inhibition assay (spectrophotometric, cephalothin reporter substrate); format: biochemical; parameters: made in house; host or cells: E. coli BL21(DE3), pET9-VIM-2; conditions: mean of two replicates, five inhibitor concentrations, Dixon plot; pH 7.5, 25 °C
Description: as §1, §2

[15] = target: T4, KPC-2 (Klebsiella pneumoniae, UniProt Q9F663); test: as above; format: biochemical; conditions: mean of two replicates, five inhibitor concentrations, Dixon plot; pH 7.5, 25 °C
T4 construct: made in house; host or cells: E. coli BL21(DE3), pET9-KPC2
T4 sequence (Q9F663 25-293 limits assumed): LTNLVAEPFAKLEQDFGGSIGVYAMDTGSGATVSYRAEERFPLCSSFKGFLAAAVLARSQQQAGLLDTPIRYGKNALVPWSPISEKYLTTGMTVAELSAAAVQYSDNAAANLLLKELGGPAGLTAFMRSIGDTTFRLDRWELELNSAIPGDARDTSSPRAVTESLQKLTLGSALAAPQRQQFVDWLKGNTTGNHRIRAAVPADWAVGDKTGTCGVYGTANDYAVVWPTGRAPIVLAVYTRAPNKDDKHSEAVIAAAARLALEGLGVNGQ
Description: as §1, §2

[16] = tested on: CTX-M-15 E. coli clinical isolate; test: Susceptibility testing (MIC), synergy with cefotaxime; format: cell-based; conditions: CTX-M-15 E. coli; antibiotic:inhibitor 1:1 (w/w)
Description: as §4, §5

[17] = tested on: OXA-24 A. baumanii clinical isolate; test: as above; format: cell-based; conditions: antibiotic:inhibitor 1:1 (w/w)
Description: as §4, §5

[18] = tested on: KPC-2 K. pneumoniae clinical isolate; test: as above; format: cell-based; conditions: for MIC of cefotaxime (CTX) in combination with compound: KPC-2 K. pneumoniae, antibiotic:inhibitor 1:1 (w/w)
Description: as §4, §5

[19] = tested on: VIM-2 P. aeruginosa clinical isolate; test: as above; format: cell-based; conditions: antibiotic:inhibitor 1:1 (w/w)
Description: as §4, §5

[20] = tested on: NDM-1 E. coli clinical isolate; test: as above; format: cell-based; conditions: antibiotic:inhibitor 1:1 (w/w)
Description: as §4, §5

[21] = tested on: E. aerogenes clinical isolate, overproduction chromosomal AmpC; test: Susceptibility testing (MIC), synergy with ceftazidime; format: cell-based; conditions: antibiotic:inhibitor 1:1 (w/w)
Description: as §4, §5

| Molecule | IC50 [2] [µM] | IC50 [3] [µM] | IC50 [4] [µM] | IC50 [5] [µM] | MIC of ceftazidime (CAZ) in combination with compound [6] [µg/mL] | MIC of ceftazidime (CAZ) in combination with compound [7] [µg/mL] | MIC of ceftazidime (CAZ) in combination with compound [8] [µg/mL] | MIC of ceftazidime (CAZ) in combination with compound [9] [µg/mL] | MIC of ceftazidime (CAZ) in combination with compound [10] [µg/mL] | MIC of ceftazidime (CAZ) in combination with compound [11] [µg/mL] | MIC of ceftazidime (CAZ) in combination with compound [12] [µg/mL] | MIC of ceftazidime (CAZ) in combination with compound [13] [µg/mL] | IC50 [14] [µM] | IC50 [15] | MIC of cefotaxime (CTX) in combination with compound [16] [µg/mL] | MIC of cefotaxime (CTX) in combination with compound [17] [µg/mL] | MIC of cefotaxime (CTX) in combination with compound [18] [µg/mL] | MIC of cefotaxime (CTX) in combination with compound [19] [µg/mL] | MIC of cefotaxime (CTX) in combination with compound [20] [µg/mL] | MIC of ceftazidime (CAZ) in combination with compound [21] [µg/mL] | further results |
| --- | --- | --- | --- | --- | --- | --- | --- | --- | --- | --- | --- | --- | --- | --- | --- | --- | --- | --- | --- | --- | --- |
| AmpC (Pseudomonas aeruginosa PAO1) |  |  |  |  |  |  |  |  |  |  |  |  |  |  |  |  |  |  |  |  | Km [1]: 33 ± 2 µM; kcat [1]: 159 ± 32 s⁻¹; kcat/Km [1]: 4.82e+06 M⁻¹ s⁻¹ |
| NCc1ccc2sc(B(O)O)cc2c1 [Compound 3] | 60.7 ± 11.8 | 5.2 ± 1.42 | 132 ± 20.9 | 0.16 ± 0.06 | 64 | 4 | 64 | 64 | 512 | 4 | 16 | 64 | 26.9 ± 7.07 | 7.3 ± 1.82 µM | 64 | 64 | 4 | 8 | 32 |  |  |
| CC(C)(C)OC(=O)Nc1cccc2cc(B(O)O)sc12 [Compound 6] | 117 ± 9.72 | 9.8 ± 3.34 | 88 ± 14 | 4.4 ± 0.83 | 64 | 4 | 64 | 64 | 512 | 64 | 64 | 64 | 103 ± 14.2 | 2.25 µM and 2.3 µM | 16 | 16 | 4 |  | 64 |  |  |
| Cc1ccc2sc(B3OC(C)(C)C(C)(C)O3)cc2c1 [Compound 1] | 68.4 ± 14 | 6.4 ± 1.52 | 113 ± 14.6 | 0.4 ± 0.08 | 4 | 4 | 16 | 64 | 64 | 8 | 16 | 4 | 72 ± 14.7 | 5.9 ± 1.64 µM | 64 | 64 | 4 | 1024 | 1024 | 4 | MIC decrease of CAZ (fold) / synergy ([9]; CAZ combination): 4 fold; MIC reduction of CAZ (fold) ([10]; DHA-1-producing E. coli strain, CAZ combination): 8 fold; MIC reduction of CTX (fold) ([18]; K. pneumoniae producing KPC-2, CTX combination): 32 fold |
| CC1(C)OB(c2cc3cc(CBr)ccc3s2)OC1(C)C [Compound 2] | 64.6 ± 7.88 | 8.3 ± 1.09 | 93 ± 18.4 | 0.2 ± 0.04 | 4 | 2 | 16 |  | 32 | 8 | 16 | 4 | 83.5 ± 3.35 | 4.7 ± 2.04 µM | 64 | 64 | 4 |  | 1024 | 4 |  |
